The record followed here is US11186587B2, “Compound as ACC inhibitor and use thereof” (NANJING SANHOME PHARMACEUTICAL CO., LTD., priority 2017, dated 2021).

The subject of the experiment is Col1A1 gene expression in TGF-β1-induced LX-2 cells. Nature of the experiment: Inhibition of human hepatic stellate cells LX-2 activation in vitro (Col1A1 gene expression, real-time PCR). Format: cell-based. To be noted: TGFβ1 10 ng/mL, 24 h drug treatment, compound concentration of the tabulated value not stated (30, 10, 3 μM prepared). The procedure:
The compounds of the present disclosure prepared in the above examples and the control compound were respectively formulated into 60 mM with DMSO for use.
DMSO stock solution of the compounds of the examples of the present disclosure and the control compound were sequentially diluted with culture medium to 30 μM, 10 μM, and 3 μM. TGF-β1 was dissolved to […] with 10 mM citric acid buffer in the kit (PeproTech) according to the instructions, ready for use.
LX-2 cells were inoculated into a 6-well culture plate at a density of 2×10^5 cells/mL after cell passage. Each well contained 2 mL DMEM with 10% FBS. The cells were cultured at 37° C. in a 5% CO2 incubator, which was recorded as Day 1. After 24 h (Day 2), the cell confluence reached 70-80%, the old culture medium was discarded, and the serum-free DMEM was used to treat the cells as low serum starvation. The old culture medium was discarded at Day 3, and the culture medium or the culture medium containing different concentrations of the drug was added for continuing culture. There were control group (serum-free DMEM culture medium), TGFβ1 group, TGFβ1+ compound group. The TGFβ1 working concentration was 10 ng/mL. 24 h after the drug treatment (Day 4), the cell medium was discarded and the cells were washed once with precooled 1×PBS and then subjected to total RNA extraction.
2.3.1 Sample pretreatment: 1 mL of TransZOL Up reagent was added to each well of the 6-well plate, and the well plate was placed horizontally for a while to let the lysis buffer evenly spread on the cell surface and lyse the cells. The cells were blown with a pipette to make the cells completely detached. The lysate was transferred to a 2 mL RNase free centrifuge tube and repeatedly blown and sucked until no significant pieces in the lysate.
The extracted RNA was diluted to a concentration of 0.1 μg-0.5 μg (Total RNA ≤1 μg) based on the same mass. The total RNA in the reverse transcription system of each sample in the experiment was about 500 ng.
Two replicates were set for each sample, and the relative expression of the target gene was calculated by the program in the PCR machine.
The threshold of the Real Time PCR result was automatically set by the Real Time PCR detector system. The relative expression of the Col1A1 gene was calculated as follows. ΔCt (Col1A1 in drug treatment group)=Avg. Ct (Col1A1 in drug treatment group)−Avg. Ct (GAPDH in drug treatment group) ΔCt (Col1A1 in TGF group)=Avg. Ct (Col1A1 in TGF group)−Avg. Ct (GAPDH in TGF group) ΔCt (Col1A1 in Control group)=Avg. Ct (Col1A1 in Control group)−Avg. Ct (GAPDH in Control group) ΔΔCt=Average value of ΔCt (Col1A1 in TGF group/drug treatment group)−ΔCt (Col1A1 in Control group)
Formula for calculating the relative expression of Col1A1 gene: RQ=^2−ΔΔCt
Relative quantification results were obtained by automatically analysis of ABI 7500 real-time quantitative PCR machine.
On the technique in general: Quantitative PCR measures a nucleic acid by following its amplification.

Consider `COc1ccccc1[C@H](Cn1c(=O)n(C(C)(C)C(=O)O)c(=O)c2c(C)c(-c3ncco3)sc21)OC1CCOCC1` [ND-630, 2-[1-[2-(2-methoxyphenyl)-2-(oxecyclo-4-yloxy)ethyl]-5-methyl-6-(1,3-oxazol-2-yl)-2,4-dioxo-1H,2H,3H,4H-thieno[2,3-d]pyrimidin-3-yl]-2-methylpropanoic acid, reference compound], for which the “Inhibition rate (%) of relative expression of the Col1A1 gene” value turned out to be 42.06%.
